Experimental data from patent publication US11415579B2, “Assay for measuring a rate of reaction between a target and a ligand candidate” (Imperial College Innovations Ltd., priority 2016, dated 2022).

Key:
Cdk2(C177A, F80C) = molecular target: T1, Cdk2(C177A, F80C) (Homo sapiens, UniProt P24941, C177A/F80C); assay: Kinetic thiol consumption assay with Cdk2 mutant F80C, incl. kobs versus concentration (Kd, k2); type: binding; design: key to Rate enhancement, Cdk2 F80C: Cdk2 rate constant divided by model-thiol rate constant; conditions: additional mutation C177A; for Rate constant with Cdk2 F80C: Protein: Cdk2, cysteine position F80C, in h^-1
T1 construct: poly-histidine; made in house; host or cells: E. coli
Procedure, shortened: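 His-tagged Cdk2(C177A/F80C) from E. coli or model thiol, 5 μM in degassed phosphate buffer pH 8 with TCEP beads, reacted with acrylamide ligands; fluorescence (ex/em 380/470 nm) normalized to DMSO control and fitted to first-order decay for kobs. Kd and k2 obtained from hyperbolic fit of kobs versus ligand concentration.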

[1] = Kinetic thiol consumption assay with model thiol glutathione; type: physicochemical; design: Rate constant with glutathione (k(GSH)): unit not given here; conditions: for Rate constant with glutathione (k(GSH)): 500 μM ligand, 5 μM thiol, phosphate buffer pH 8; for Rate constant with Glutathione: Protein: Glutathione, cysteine position NA, in h-1
Procedure, shortened: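 GSH 5 μM, degassed phosphate buffer pH 8, TCEP beads 2% v/v; acrylamide added; RT, 1 h; fluorescence ex/em 380/470 nm; normalized to DMSO/thiol control; k from first-order exponential decay fit.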

Cdk2(R122C) (C177A) = molecular target: T2, Cdk2(R122C) (C177A) (Homo sapiens, UniProt P24941, C177A/R122C); assay: Kinetic thiol consumption assay with Cdk2 mutant R122C; type: binding; design: key to Rate enhancement, Cdk2 R122C: rate constant with Cdk2 ÷ rate constant with model thiol (fold); conditions: additional mutation C177A; for Rate constant with Cdk2 R122C: Protein: Cdk2, cysteine position R122C, in h-1
T2 construct: poly-histidine; made in house; host or cells: E. coli
Procedure, shortened: (§1)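 5 μM thiol, degassed phosphate pH 8, 2% v/v immobilized TCEP beads; 1 h RT; fluorescence ex 380/em 470 nm; normalized vs DMSO/thiol-only; first-order exponential decay fit → rate constant; Cdk2 k / model-thiol k = rate enhancement per acrylamide.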

[2] = molecular target: T3, human cyclin-dependent kinase 2 (Cdk2) (Homo sapiens, UniProt P24941); assay: Kinetic thiol consumption assay with wild type Cdk2 (C177); type: binding; design: key to Rate enhancement, Cdk2 WT: k(Cdk2) divided by k(model thiol); Rate constant with Cdk2 (k(Cdk2)): unit not given here; conditions: for Rate constant with Cdk2 (k(Cdk2)): 500 μM ligand, 5 μM thiol, phosphate buffer pH 8; for Rate enhancement, Cdk2 WT: no additional mutations; for Rate constant with Cdk2 WT: Protein: Cdk2, cysteine position WT, in h^-1; for k(Cdk2)/k(Cdk2_mut) rate enhancement: model thiol Cdk2[C177A, F80C, K278C]; for k(Cdk2)/k(GSH) rate enhancement: model thiol glutathione
T3 construct: poly-histidine; made in house; host or cells: E. coli
Procedure, shortened: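 Rate enhancement: first-order decay constant with Cdk2 over that with a model thiol. Thiols (5 μM, degassed phosphate buffer pH 8, immobilized TCEP) were incubated with acrylamides at room temperature, and thiol consumption followed by fluorescence at 380/470 nm, normalized to DMSO control. Cdk2 was His-tagged, E. coli-expressed, with one surface cysteine (C177).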

Cdk2(T182C) (C177A) = molecular target: T4, Cdk2(T182C) (C177A) (Homo sapiens, UniProt P24941, C177A/T182C); assay: Kinetic thiol consumption assay with Cdk2 mutant T182C; type: binding; design: key to Rate enhancement, Cdk2 T182C: rate constant with Cdk2 ÷ rate constant with model thiol (fold); conditions: additional mutation C177A; for Rate constant with Cdk2 T182C: Protein: Cdk2, cysteine position T182C, in h^-1
T4 construct: poly-histidine; made in house; host or cells: E. coli
Procedure, shortened: as §1

Cdk2(N272C) (C177A) = molecular target: T5, Cdk2(N272C) (C177A) (Homo sapiens, UniProt P24941, C177A/N272C); assay: Kinetic thiol consumption assay with Cdk2 mutant N272C; type: binding; design: key to Rate enhancement, Cdk2 N272: rate constant with Cdk2 ÷ rate constant with model thiol (fold); conditions: for Rate enhancement, Cdk2 N272: Cdk2 N272, additional mutation C177A; for Rate constant with Cdk2 N272C: Protein: Cdk2, cysteine position N272C, additional mutation C177A, in h^-1
T5 construct: poly-histidine; made in house; host or cells: E. coli
Procedure, shortened: as §1

Cdk2(S276C) (C177A) = molecular target: T6, Cdk2(S276C) (C177A) (Homo sapiens, UniProt P24941, C177A/S276C); assay: Kinetic thiol consumption assay with Cdk2 mutant S276C; type: binding; design: key to Rate enhancement, Cdk2 S276C: rate constant with Cdk2 ÷ rate constant with model thiol (fold); conditions: additional mutation C177A; for Rate constant with Cdk2 S276C: Protein: Cdk2, cysteine position S276C, in h^-1
T6 construct: poly-histidine; made in house; host or cells: E. coli
Procedure, shortened: as §1

Cdk2(H71C) (C177A) = molecular target: T7, Cdk2(H71C) (C177A) (Homo sapiens, UniProt P24941, C177A/H71C); assay: Kinetic thiol consumption assay with Cdk2 mutant H71C; type: binding; design: key to Rate enhancement, Cdk2 H71C: rate constant with Cdk2 ÷ rate constant with model thiol (fold); conditions: additional mutation C177A; for Rate constant with Cdk2 H71C: Protein: Cdk2, cysteine position H71C, in h^-1
T7 construct: poly-histidine; made in house; host or cells: E. coli
Procedure, shortened: as §1

Cdk2[C177A, F80C, K278C] = molecular target: T8, Cdk2[C177A, F80C, K278C] (Homo sapiens, UniProt P24941, C177A/F80C/K278C); assay: Kinetic thiol consumption assay with mutant Cdk2 as model thiol; type: binding; design: unit not given here; conditions: 500 μM ligand, 5 μM thiol, phosphate buffer pH 8
T8 construct: poly-histidine; made in house; host or cells: E. coli
Procedure, shortened: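 Model thiol: His-tagged human Cdk2 C177A/F80C/K278C (two engineered surface cysteines), E. coli-expressed, 5 μM in degassed phosphate buffer pH 8 with immobilized TCEP beads (2% v/v). Fluorescence (ex/em 380/470 nm) followed over time at room temperature, normalized to DMSO/thiol control. First-order decay fit gives rate constants.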

Cdk2(S181C) (C177A) = molecular target: T9, Cdk2(S181C) (C177A) (Homo sapiens, UniProt P24941, C177A/S181C); assay: Kinetic thiol consumption assay with Cdk2 mutant S181C; type: binding; design: key to Rate enhancement, Cdk2 S181C: rate constant with Cdk2 ÷ rate constant with model thiol (fold); conditions: additional mutation C177A; for Rate constant with Cdk2 S181C: Protein: Cdk2, cysteine position S181C, in h^-1
T9 construct: poly-histidine; made in house; host or cells: E. coli
Procedure, shortened: as §1

Row | SMILES | Rate enhancement, Cdk2 F80C (Cdk2(C177A, F80C)) | Rate constant with Cdk2 F80C (Cdk2(C177A, F80C)) | Rate constant with glutathione (k(GSH)) [1] | Rate constant with Glutathione [1] | Rate enhancement, Cdk2 R122C (Cdk2(R122C) (C177A)) | Rate constant with Cdk2 (k(Cdk2)) [2] | Rate enhancement, Cdk2 WT [2] | Rate constant with Cdk2 WT [2] | k(Cdk2)/k(Cdk2_mut) rate enhancement [2] | k(Cdk2)/k(GSH) rate enhancement [2] | Rate enhancement, Cdk2 T182C (Cdk2(T182C) (C177A)) | Rate constant with Cdk2 T182C (Cdk2(T182C) (C177A)) | Rate enhancement, Cdk2 N272 (Cdk2(N272C) (C177A)) | Rate constant with Cdk2 N272C (Cdk2(N272C) (C177A)) | Rate enhancement, Cdk2 S276C (Cdk2(S276C) (C177A)) | Rate constant with Cdk2 S276C (Cdk2(S276C) (C177A)) | Rate enhancement, Cdk2 H71C (Cdk2(H71C) (C177A)) | Rate constant with Cdk2[C177A, F80C, K278C] (k(Cdk2_mut)) (Cdk2[C177A, F80C, K278C]) | Rate enhancement, Cdk2 S181C (Cdk2(S181C) (C177A)) | Rate constant with Cdk2 S181C (Cdk2(S181C) (C177A)) | also measured
1 | C=CC(=O)N1CCN(S(C)(=O)=O)CC1c1ccccc1 (centres unmarked) [EL-1160] | 0.4705 | 0.01348 | 0.0286 | 0.02865 | 0.2711 | 0.01181 | 0.4122 | 0.01181 | 2.854 | 0.4129 | 2 | 0.05729 | 0.5689 | 0.0163 | 0.7682 | 0.02201 | 0.9714 | 0.00414 | 0.4684 | 0.01342 | Rate constant with Cdk2 R122C (Cdk2(R122C) (C177A)): 0.007767; Rate constant with Cdk2 H71C (Cdk2(H71C) (C177A)): 0.02783
2 | C=CC(=O)Nc1ccc(C(=O)NC2CCCC2)cc1 [EL-1114] | 9.237 | 0.2784 | 0.02997 | 0.03014 | 0.259 | 0.07947 | 2.637 | 0.07947 | 0.3457 | 2.652 | 16.35 | 0.4929 | 0.04599 | 0.001386 | 0.7973 | 0.02403 | 3.388 | 0.2299 | 0.3942 | 0.01188 | Rate constant with Cdk2 R122C (Cdk2(R122C) (C177A)): 0.007805; Rate constant with Cdk2 H71C (Cdk2(H71C) (C177A)): 0.1021
3 | C=CC(=O)NCc1ccc(OC)cc1 [BN-63] | 0.5692 | 0.001168 | 0.00215 | 0.002052 | 0 | 0.00194 | 1.461 | 0.002998 | 0.5882 | 0.9011 | 0.7193 | 0.001476 | 0.5 | 0.001026 | 0.393 | 0.0008064 | 3.1842E−11 | 0.0033 | 0.4386 | 0.0009 | Rate constant with Cdk2 H71C (Cdk2(H71C) (C177A)): 6.534E−14
4 | C=CC(=O)N(C(=O)C=C)c1c2ccccc2n2c(C)nc3ccccc3c12 [CA-152] | 0.1587 | 1.27 | 0.2501 | 8.003 | 0 | 0.8358 | 0.4371 | 3.498 | 0.2732 | 3.342 | 0 | – | 0 | – | 0 | – | 0 | 3.059 | 0.9118 | 7.297 | –
5 | C=CC(=O)N1CC(Cc2ccccc2)C1 [CA-072] | 0.2566 | 0.0057 | 0.01236 | 0.02221 | 0.3503 | 0.0241 | 1.085 | 0.0241 | 5.016 | 1.95 | 6.718 | 0.1492 | 9.388 | 0.2085 | 4.036 | 0.08965 | 16.46 | 0.00481 | 2.167 | 0.04813 | Rate constant with Cdk2 R122C (Cdk2(R122C) (C177A)): 0.00778; Rate constant with Cdk2 H71C (Cdk2(H71C) (C177A)): 0.3655
6 | C=CC(=O)Nc1ccccc1N1CCOCC1 [CA-030] | 1.494 | 0.025 | 0.0159 | 0.01673 | 0.2896 | 0.01069 | 0.639 | 0.01069 | 0.277 | 0.6723 | 0.5957 | 0.009966 | 0.2409 | 0.00403 | 0.2657 | 0.004445 | 0.1317 | 0.03859 | 0.7478 | 0.01251 | Rate constant with Cdk2 R122C (Cdk2(R122C) (C177A)): 0.004845; Rate constant with Cdk2 H71C (Cdk2(H71C) (C177A)): 0.002204
7 | C=CC(=O)NCCc1c(-c2ccccn2)[nH]c2ccccc12 [EL-1083] | 0 | – | 0.00618 | 0.01092 | 0.05484 | 0.00098 | 0.08945 | 0.0009768 | 0.3446 | 0.1583 | 0.9139 | 0.00998 | 0.157 | 0.001714 | 0.5044 | 0.005508 | 0 | 0.00284 | 0.1531 | 0.001672 | Rate constant with Cdk2 R122C (Cdk2(R122C) (C177A)): 0.0005988
